From PubChem BioAssay (NCI)
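Five compound concentrations were applied to cells in 96-well plates for 48 hours; endpoints were derived by simple linear interpolation of the resulting dose-response curve. The concentration for 50% growth inhibition is given as GI50. TGI is the concentration that stops growth completely.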

Assays:
Assay in all cases: inhibition of tumour cell growth, NCI panel, 48 h
SW-620 colon = system: SW-620 colon
DU-145 prostate = system: DU-145 prostate
A498 renal = system: A498 renal
UO-31 renal = system: UO-31 renal
HS 578T breast = system: HS 578T breast
PC-3 prostate = system: PC-3 prostate
HCT-15 colon = system: HCT-15 colon
IGROV1 ovarian = system: IGROV1 ovarian
MCF7 breast = system: MCF7 breast
OVCAR-3 ovarian = system: OVCAR-3 ovarian
UACC-257 melanoma = system: UACC-257 melanoma
OVCAR-8 ovarian = system: OVCAR-8 ovarian
NCI-H23 lung = system: NCI-H23 lung
ACHN renal = system: ACHN renal
A549 NSCLC = system: A549 NSCLC
SF-295 CNS = system: SF-295 CNS
HOP-92 NSCLC = system: HOP-92 NSCLC
HCC-2998 colon = system: HCC-2998 colon
MDA-MB-231 breast = system: MDA-MB-231 breast
HCT-116 colon = system: HCT-116 colon
HL-60(TB) leukemia = system: HL-60(TB) leukemia
KM12 colon = system: KM12 colon
SK-MEL-5 melanoma = system: SK-MEL-5 melanoma
BT-549 breast = system: BT-549 breast
SK-OV-3 ovarian = system: SK-OV-3 ovarian
K-562 leukemia = system: K-562 leukemia
SF-539 CNS = system: SF-539 CNS
U251 CNS = system: U251 CNS
NCI/ADR-RES ovarian = system: NCI/ADR-RES ovarian
MOLT-4 leukemia = system: MOLT-4 leukemia
SNB-19 CNS = system: SNB-19 CNS
MDA-MB-435 = system: MDA-MB-435
EKVX NSCLC = system: EKVX NSCLC
OVCAR-5 ovarian = system: OVCAR-5 ovarian
OVCAR-4 ovarian = system: OVCAR-4 ovarian
HT29 colon = system: HT29 colon
UACC-62 melanoma = system: UACC-62 melanoma
TK-10 renal = system: TK-10 renal
LOX IMVI melanoma = system: LOX IMVI melanoma
HOP-62 NSCLC = system: HOP-62 NSCLC
CAKI-1 renal = system: CAKI-1 renal

SMILES: CCOC(=O)c1c(C)[nH]c(/C=C2\N=C(c3ccc[nH]3)C=C2OC)c1C
- GI50 (SW-620 colon): < 10 nM
- TGI (SW-620 colon): 1330 nM
- GI50 (DU-145 prostate): 37.2 nM
- TGI (DU-145 prostate): 1600 nM
- GI50 (A498 renal): 1870 nM
- TGI (A498 renal): 5.7 µM
- GI50 (UO-31 renal): 23.9 nM
- TGI (UO-31 renal): 58 nM
- GI50 (HS 578T breast): 57.7 nM
- TGI (HS 578T breast): 925 nM
- GI50 (PC-3 prostate): 44.2 nM
- TGI (PC-3 prostate): 2450 nM
- GI50 (HCT-15 colon): < 10 nM
- TGI (HCT-15 colon): 1070 nM
- GI50 (IGROV1 ovarian): 30.5 nM
- TGI (IGROV1 ovarian): 1090 nM
- GI50 (MCF7 breast): 46.9 nM
- TGI (MCF7 breast): 1300 nM
- GI50 (OVCAR-3 ovarian): 15.2 nM
- TGI (OVCAR-3 ovarian): 299 nM
- GI50 (UACC-257 melanoma): 40.2 nM
- TGI (UACC-257 melanoma): 1460 nM
- GI50 (OVCAR-8 ovarian): 35.8 nM
- TGI (OVCAR-8 ovarian): 1610 nM
- GI50 (NCI-H23 lung): 235 nM
- TGI (NCI-H23 lung): 2030 nM
- GI50 (ACHN renal): 32.1 nM
- TGI (ACHN renal): 1290 nM
- GI50 (A549 NSCLC): 45.7 nM
- TGI (A549 NSCLC): 1280 nM
- GI50 (SF-295 CNS): 105 nM
- TGI (SF-295 CNS): 624 nM
- GI50 (HOP-92 NSCLC): 32.3 nM
- TGI (HOP-92 NSCLC): 79.2 nM
- GI50 (HCC-2998 colon): 49.7 nM
- TGI (HCC-2998 colon): 1180 nM
- GI50 (MDA-MB-231 breast): 26.3 nM
- TGI (MDA-MB-231 breast): 1320 nM
- GI50 (HCT-116 colon): < 10.7 nM
- GI50 (HL-60(TB) leukemia): 23.2 nM
- TGI (HL-60(TB) leukemia): 442 nM
- GI50 (KM12 colon): 15 nM
- TGI (KM12 colon): 1320 nM
- GI50 (SK-MEL-5 melanoma): 23.1 nM
- TGI (SK-MEL-5 melanoma): 69.8 nM
- GI50 (BT-549 breast): 41 nM
- TGI (BT-549 breast): 1480 nM
- GI50 (SK-OV-3 ovarian): 413 nM
- TGI (SK-OV-3 ovarian): 3.71 µM
- GI50 (K-562 leukemia): 50.4 nM
- TGI (K-562 leukemia): 1530 nM
- GI50 (SF-539 CNS): 60.6 nM
- TGI (SF-539 CNS): 1280 nM
- GI50 (U251 CNS): 52 nM
- TGI (U251 CNS): 1590 nM
- GI50 (NCI/ADR-RES ovarian): 45.7 nM
- TGI (NCI/ADR-RES ovarian): 3.45 µM
- GI50 (MOLT-4 leukemia): < 12 nM
- TGI (MOLT-4 leukemia): 3.09 µM
- GI50 (SNB-19 CNS): 735 nM
- TGI (SNB-19 CNS): > 42.3 µM
- GI50 (MDA-MB-435): 18.6 nM
- TGI (MDA-MB-435): 1150 nM
- GI50 (EKVX NSCLC): 469 nM
- TGI (EKVX NSCLC): 3.81 µM
- GI50 (OVCAR-5 ovarian): 40.4 nM
- TGI (OVCAR-5 ovarian): 1510 nM
- GI50 (OVCAR-4 ovarian): 135 nM
- TGI (OVCAR-4 ovarian): 2810 nM
- GI50 (HT29 colon): < 10 nM
- TGI (HT29 colon): 1190 nM
- GI50 (UACC-62 melanoma): 30.9 nM
- TGI (UACC-62 melanoma): 90.4 nM
- GI50 (TK-10 renal): 30.7 nM
- TGI (TK-10 renal): 1750 nM
- GI50 (LOX IMVI melanoma): < 10 nM
- TGI (LOX IMVI melanoma): 16.8 nM
- GI50 (HOP-62 NSCLC): 40.6 nM
- TGI (HOP-62 NSCLC): 1170 nM
- GI50 (CAKI-1 renal): 46.1 nM
- TGI (CAKI-1 renal): 795 nM
